# Reference: PubChem BioAssay (NCI)
#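 Abbreviation: GI50, concentration required for 50% inhibition of growth. TGI is the concentration that stops growth completely.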
# Legend:
# Test in all cases: NCI anticancer screen, dose series, 384-well format
# [1] = system: 786-0 renal
# [2] = system: A498 renal
# [3] = system: A549 NSCLC
# [4] = system: ACHN renal
# [5] = system: BT-549 breast
# [6] = system: CAKI-1 renal
# [7] = system: CCRF-CEM leukemia
# [8] = system: COLO 205 colon
# [9] = system: DU-145 prostate
# [10] = system: EKVX NSCLC
# [11] = system: HCC-2998 colon
# [12] = system: HCT-15 colon
# [13] = system: HL-60(TB) leukemia
# [14] = system: HOP-62 NSCLC
# [15] = system: HOP-92 NSCLC
# [16] = system: HS 578T breast
# [17] = system: HT29 colon
# [18] = system: IGROV1 ovarian
# [19] = system: K-562 leukemia
# [20] = system: KM12 colon
# [21] = system: LOX IMVI melanoma
# [22] = system: M14 melanoma
# [23] = system: MALME-3M melanoma
# [24] = system: MCF7 breast
# [25] = system: MDA-MB-231 breast
# [26] = system: MDA-MB-435 melanoma
# [27] = system: MDA-MB-468 breast
# [28] = system: MOLT-4 leukemia
# [29] = system: NCI-H226 lung
# [30] = system: NCI-H23 lung
# [31] = system: NCI-H322M lung
# [32] = system: NCI-H460 NSCLC
# [33] = system: NCI-H522 lung
# [34] = system: NCI/ADR-RES ovarian
# [35] = system: OVCAR-3 ovarian
# [36] = system: OVCAR-4 ovarian
# [37] = system: OVCAR-5 ovarian
# [38] = system: OVCAR-8 ovarian
# [39] = system: PC-3 prostate
# [40] = system: RPMI-8226 leukemia
# [41] = system: RXF 393 renal
# [42] = system: SF-268 CNS
# [43] = system: SF-295 CNS
# [44] = system: SF-539 CNS
# [45] = system: SK-MEL-28 melanoma
# [46] = system: SK-MEL-5 melanoma
# [47] = system: SK-OV-3 ovarian
# [48] = system: SN12C renal
# [49] = system: SNB-19 CNS
# [50] = system: SNB-75 CNS
# [51] = system: SR leukemia
# [52] = system: SW-620 colon
# [53] = system: T-47D breast
# [54] = system: TK-10 renal
# [55] = system: UACC-257 melanoma
# [56] = system: UACC-62 melanoma
# [57] = system: UO-31 renal
smiles,measurement,setting,value
C=CC(=O)N1CCN(c2ncnc3c(F)c(-c4c(O)cccc4F)c(Cl)cc23)CC1,GI50,[1],3.34 µM
same,TGI,[1],12.4 µM
same,GI50,[2],2.05 µM
same,TGI,[2],6.37 µM
same,GI50,[3],2.36 µM
same,TGI,[3],5.74 µM
same,GI50,[4],2.27 µM
same,TGI,[4],5.89 µM
same,GI50,[5],1.73 µM
same,TGI,[5],4.14 µM
same,GI50,[6],3.07 µM
same,TGI,[6],12.9 µM
same,GI50,[7],1.83 µM
same,TGI,[7],3.34 µM
same,GI50,[8],2.33 µM
same,TGI,[8],5.19 µM
same,GI50,[9],3.5 µM
same,TGI,[9],12.5 µM
same,GI50,[10],5.74 µM
same,TGI,[10],18 µM
same,GI50,[11],2.27 µM
same,TGI,[11],4.32 µM
same,GI50,[12],2.5 µM
same,TGI,[12],6.08 µM
same,GI50,[13],1.68 µM
same,TGI,[13],3.08 µM
same,GI50,[14],1.21 µM
same,TGI,[14],4.8 µM
same,GI50,[15],4.73 µM
same,TGI,[15],16.8 µM
same,GI50,[16],1.71 µM
same,TGI,[16],3.87 µM
same,GI50,[17],2.97 µM
same,TGI,[17],8.72 µM
same,GI50,[18],3.5 µM
same,TGI,[18],11.8 µM
same,GI50,[19],5.53 µM
same,TGI,[19],18.1 µM
same,GI50,[20],2.92 µM
same,TGI,[20],9.85 µM
same,GI50,[21],2.08 µM
same,TGI,[21],5.21 µM
same,GI50,[22],1.98 µM
same,TGI,[22],4.68 µM
same,GI50,[23],3.58 µM
same,TGI,[23],9.59 µM
same,GI50,[24],2.95 µM
same,TGI,[24],9.01 µM
same,GI50,[25],5.17 µM
same,TGI,[25],18.5 µM
same,GI50,[26],3.91 µM
same,TGI,[26],13.9 µM
same,GI50,[27],2.34 µM
same,TGI,[27],4.63 µM
same,GI50,[28],2.08 µM
same,TGI,[28],3.62 µM
same,GI50,[29],2.39 µM
same,TGI,[29],7.65 µM
same,GI50,[30],0.0694 µM
same,TGI,[30],0.94 µM
same,GI50,[31],3.22 µM
same,TGI,[31],10.3 µM
same,GI50,[32],2.78 µM
same,TGI,[32],7.79 µM
same,GI50,[33],3.1 µM
same,TGI,[33],8.43 µM
same,GI50,[34],14 µM
same,TGI,[34],28.3 µM
same,GI50,[35],1.83 µM
same,TGI,[35],3.9 µM
same,GI50,[36],5.97 µM
same,TGI,[36],18.2 µM
same,GI50,[37],3.66 µM
same,TGI,[37],11.9 µM
same,GI50,[38],2.46 µM
same,TGI,[38],6.4 µM
same,GI50,[39],2.64 µM
same,TGI,[39],8.13 µM
same,GI50,[40],1.6 µM
same,TGI,[40],3 µM
same,GI50,[41],1.91 µM
same,TGI,[41],4.03 µM
same,GI50,[42],2.09 µM
same,TGI,[42],5.38 µM
same,GI50,[43],2.97 µM
same,TGI,[43],8.83 µM
same,GI50,[44],2.4 µM
same,TGI,[44],5.02 µM
same,GI50,[45],3.17 µM
same,TGI,[45],13.7 µM
same,GI50,[46],2.39 µM
same,TGI,[46],5.66 µM
same,GI50,[47],4.14 µM
same,TGI,[47],16.1 µM
same,GI50,[48],4.48 µM
same,TGI,[48],15.4 µM
same,GI50,[49],4.08 µM
same,TGI,[49],14.9 µM
same,GI50,[50],3.41 µM
same,TGI,[50],16.7 µM
same,GI50,[51],1 µM
same,TGI,[51],2.18 µM
same,GI50,[52],3.78 µM
same,TGI,[52],11.3 µM
same,GI50,[53],6.31 µM
same,TGI,[53],18.4 µM
same,GI50,[54],8.84 µM
same,TGI,[54],30.7 µM
same,GI50,[55],3.65 µM
same,TGI,[55],9.18 µM
same,GI50,[56],1.59 µM
same,TGI,[56],4.76 µM
same,GI50,[57],3.58 µM
same,TGI,[57],12.5 µM
